Data: paper PMC4634797, “New linear antiplasmodial peptides related to angiotensin II” (Malaria Journal, 2015)
Where “and” joins values, the source holds several entries; their conditions need not be identical. Equal entries are not always repeated. Ends that are not written are not given here. Peptide text beside a SMILES is read from it.

Tests used:
[1] = tested on: uninfected human erythrocytes; assay type: cell-based
Protocol: The haemolytic effect of analogs 5 and 6 was determined in uninfected erythrocytes. Cells were maintained in the same culture conditions in the presence of 10^−8 mol L^−1 peptides, for 24 h. Erythrocytes were centrifuged at 900g/8 min and free haemoglobin in the supernatant was assessed by spectrophotometer at 550 nm. Untreated cells were used as negative control to discount non-specific haemolysis. The haemolytic activity was expressed as percentage of the control. This positive control (100 % haemolysis) was prepared by treating the erythrocytes with distilled water.
The effects of the Ang II, peptides 5 and 6 in the erythrocyte human cells to define the haemolysis were seeded in a 96-well plate in the absence (control) or presence of 10^−8 mol L^−1 of the analogues, as already described.
Fig. 5 Haemolytic assay of human red blood cells were treated with distilled water; uninfected erythrocytes were kept in the same conditions used in the invasion assay with a control and each peptides tested (10^−8 mol L^−1), at 37 °C for 24 h. After incubation, the supernatant was collected, clarified at 900 g/8 min and the haemoglobin content was detected in a spectrophotometer at […]. Triple asterisk statistically significant compared with distilled water value p < 0.05.

[2] = tested on: non-infected human erythrocytes; assay type: cell-based
Protocol: The MHC of the peptides were assessed through the measurement of haemoglobin released by non-infected human erythrocytes in the presence of increasing concentrations of the compounds in the same culture conditions of the invasion assay. As described by Jin-Jiang, MHC is the highest peptide concentration that causes no detectable release of haemoglobin.

[3] = tested on: Plasmodium falciparum W2 strain, erythrocytic cycle; details: read-out: IC50, suppression of erythrocytic invasion (rings formed) by P. falciparum; seven concentrations 10^−4 to 10^−14 mol L^−1, 24 h; non-linear regression, GraphPad Prism; n = 2
Source text: The erythrocytic cycle of Plasmodiumfalciparum was maintained in vitro by culturing W2 strains in 1640 medium, supplemented with A-type human blood and serum, as described in Saraiva et al. [6].
Sorbitol solution (5 %) was used to synchronize parasite cultures into the ring stage, according to Lambros and Vanderberg [18]. The resistant ring-forms are subsequently maintained in culture as described above. Erythrocytes infected by parasite mature forms at 2–3 % parasitaemia and 5 % haematocrit were kept in the presence or absence of 10^−8 mol L^−1 synthetic peptides, for 24 h. Invasion is assessed by the appearance of new ring forms. The percentage of invasion was determined by optical microscopy (1000× magnification). It represents the total number of cells infected by rings in 100 erythrocytes in at least ten random microscopic fields. The invasion assay was carried out using two different cell suspension and generated equivalent results
The IC50 values were calculated by using GraphPad Prism Software version 5.00 for Windows (GraphPad, San Diego, California, USA). Parameters: Nonlinear Regression; log (inhibitor) vs. response equation was chosen at least square (ordinary) fit method was applied. […]

[4] = not given; remark: listed apart in the source
[5] = not given; remark: listed apart in the source
[6] = not given; remark: listed apart in the source
[7] = not given; remark: listed apart in the source
[8] = tested on: P. gallinaceum sporozoite; details: cited from earlier work; for biological (antiplasmodial) activity on P. gallinaceum sporozoites: Ala-replacement / deletion analogues and short peptides; for antiplasmodial activity against P. gallinaceum sporozoite: lactam bridged Ang II analogues
Source text: Chamlian et al. studied some lactam bridged Ang II analogues, which presented Asp and Lys insertion in order to restrict the peptide. […] They replaced each amino acid by Ala or deleted the residues of the native Ang II molecule. The biological activities of the analogues […]and […]on the P. gallinaceum sporozoites were equipotent to native Ang II [4], 75 and 79 % of activity, respectively.

[9] = tested on: P. falciparum red blood cells; details: cited from earlier work
Source text: Saraiva et al. described studies that aimed to identify the molecular mechanisms induced by Ang II, which are involved in the modulation of P. falciparum erythrocytic cycle. […] Torres et al. studied the influence of restrict peptides in P. falciparum red blood cells.

[10] = tested on: Plasmodium gallinaceum mature sporozoites; assay: Effect of the peptides on salivary gland-derived Plasmodium gallinaceum sporozoites (membrane permeability, propidium iodide fluorescence); assay type: cell-based; details: 60 μmol L^−1 peptide in PBS, 37 °C, 1 h, fluorescence microscopy, mean, n = 9
Protocol: Nine-thousand P. gallinaceum mature sporozoites were recovered from the salivary glands of Ae. aegypti and incubated in 50 μL of the PBS solution, with 40 μmol L^−1 digitonin (positive control), 60 μmol L^−1 peptides or negative controls, at 37 °C for 1 h. Cell membrane integrity was then monitored using a Carl Zeiss inverted fluorescence microscope (model Observer Axio Vision A.1) coupled to an image capture Zeiss AxioCam HR digital camera (1300 × 1030 pixels resolution and 8-bit quantization) after addition of 1 μL of the propidium iodide aqueous solution (200 μmol L^−1) in 5 μL of total solution volume. Images were obtained using a 40× objective lens and a green filter effect in red. The spectral range was set with the excitation at 538 nm within the visible spectrum in order to produce orange-red fluorescence centered at 619 nm, which was processed using the Axio 4.7 software.
The effect of the peptides on sporozoites was determined in vitro by fluorescence microscopy after one hour of incubation of the parasites with each peptide in the presence of propidium iodide (see Additional file 1). The results are reported as the per cent of fluorescent sporozoites. The analyses were carried out in triplicate using three different mosquito batches and a total of nine experiments were performed (n = 9). The effects of the peptides on P. gallinaceum sporozoites in vitro assay presented 64–94 % activity.
Fig. 2 Effects of peptides on membrane permeability expressed as the per cent of fluorescent mature sporozoites (mean ± standard deviation, n = 9). […] Positive control group (+): digitonin/PBS; negative control group (−): PBS.
Nine-thousand P. gallinaceum mature sporozoites were recovered from the salivary glands of Ae. aegypti and incubated in 50 µL of the PBS solution, with 40 μmol L^–1 digitonin (positive control), 60 μmol L^–1 peptides or negative controls, at 37 °C for one hour. Cell membrane integrity was then monitored using a Carl Zeiss inverted fluorescence microscope (model Observer Axio Vision A.1) coupled to an image capture Zeiss AxioCam HR digital camera (1,300 x 1,030 pixels resolution and 8-bit quantization) after addition of 1 µL of the propidium iodide aqueous solution (200 µmol L^–1) in 5 μL of total solution volume. Images were obtained using a 40X objective lens and a green filter effect in red. The spectral range was set with the excitation at 538 nm within the visible spectrum in order to produce orange-red fluorescence centered at 619 nm, which was processed using the Axio 4.7 software.

Compound: CC[C@H](C)[C@H](NC(=O)[C@H](Cc1ccc(O)cc1)NC(=O)[C@@H](NC(=O)[C@H](CCCNC(=N)N)NC(=O)[C@@H](N)CC(=O)O)C(C)C)C(=O)N[C@@H](Cc1cnc[nH]1)C(=O)N1CCC[C@H]1C(=O)N[C@@H](Cc1ccccc1)C(=O)O [Ang II, angiotensin II]
- haemolytic activity (% of distilled water control) [1]: did not present hemolytic effects
- MHC [2]: 10^−5 M

Compound: N[C@@H](Cc1ccc(O)cc1)C(=O)N[C@@H](Cc1c[nH]cn1)C(=O)N1CCC[C@H]1C(=O)N[C@@H](Cc1ccccc1)C(=O)O [Peptide 5, des-Asp^1,Arg^2,Val^3,Ile^5-AII] (H-YHPF-OH)
- MHC [2]: 10^−5 M
- IC50 [3]: 0.89 nM
- secondary conformation β-turn: 25.7%
- secondary conformation α-helix [4]: 9.7% (2×) and 9.6%
- secondary conformation parallel [5]: 12.1% and 13.4%
- secondary conformation random coil [6]: 40.6% and 44.3% and 40.4%
- secondary conformation antiparallel [7]: 12% and 13.9%

Compound: CC[C@H](C)[C@H](NC(=O)[C@@H](N)C(C)C)C(=O)N1CCC[C@H]1C(=O)N[C@@H](Cc1ccccc1)C(=O)O [Peptide 6, des-Asp^1,Arg^2,Tyr^4,His^6-AII] (H-VIPF-OH)
- MHC [2]: 10^−6 M
- IC50 [3]: 0.62 nM
- secondary conformation β-turn: 21.7%
- secondary conformation α-helix [4]: 9.6% and 9.7% (2×)
- secondary conformation parallel [5]: 13%
- secondary conformation random coil [6]: 40.4%

Compound: Arg-Val-Tyr-Ile-His-Pro-Phe [deletion analogue of Ang II, Ferreira et al]
- biological (antiplasmodial) activity on P. gallinaceum sporozoites [8]: about 50%

Compound: Asp-Arg-Val-Tyr-Ile-His-Pro [deletion analogue of Ang II, Ferreira et al]
- biological (antiplasmodial) activity on P. gallinaceum sporozoites [8]: about 50%

Compound: CRDCVYIHPF (cysteine pairing not given here) [restrict peptide of Torres et al]
- reduction of the parasitaemia by restrict peptides [9]: active in two different parasite species

Compound: DRVYAHPF [Ala-replacement Ang II analogue from earlier work]
- biological (antiplasmodial) activity on P. gallinaceum sporozoites [8]: 75%

Compound: DRVYDIHKPF (also: sidechain bridge or staple (positions not given here)) [VC-26, lactam bridged Ang II analogue of Chamlian et al]
- antiplasmodial activity against P. gallinaceum sporozoite [8]: 73%

Compound: DRVYHIPF [Peptide 1, [Ile^6,His^5]-AII]
- per cent of fluorescent mature sporozoites (Spz Fluorescence, antiplasmodial activity) [10]: 94%

Compound: DRVYIAPF [Ala-replacement Ang II analogue from earlier work]
- biological (antiplasmodial) activity on P. gallinaceum sporozoites [8]: 79%

Compound: DRVYIDHKPF (also: sidechain bridge or staple (positions not given here)) [VC-12, lactam bridged Ang II analogue of Chamlian et al]
- antiplasmodial activity against P. gallinaceum sporozoite [8]: 87%

Compound: DRVYPF [Peptide 2, des-Ile^5,His^6-AII]
- per cent of fluorescent mature sporozoites (Spz Fluorescence, antiplasmodial activity) [10]: 64%

Compound: Ile-His-Pro-Phe [short peptide, Ferreira et al]
- biological (antiplasmodial) activity on P. gallinaceum sporozoites [8]: about 80%

Compound: RYHIPF [Peptide 4, [Ile^4,His^3]-des-Asp^1,Val^3-AII]
- per cent of fluorescent mature sporozoites (Spz Fluorescence, antiplasmodial activity) [10]: 77%

Compound: Val-Tyr-Ile-His-Pro [short peptide, Ferreira et al]
- biological (antiplasmodial) activity on P. gallinaceum sporozoites [8]: about 80%

Compound: Val-Tyr-Ile-His-Pro-Phe (VYIHPF; printed: Val-Tyr-Ile-His-Pro-Phe) [short peptide, Ferreira et al]
- biological (antiplasmodial) activity on P. gallinaceum sporozoites [8]: about 80%

Compound: [2-Nal^3]- des-Asp^1,Arg^2,Tyr^4,His^6-AII [Peptide 9]
- per cent of fluorescent mature sporozoites (Spz Fluorescence, antiplasmodial activity) [10]: 70%

Compound: [2-Nal^4]- des-Asp^1,Arg^2,Tyr^4,His^6-AII [Peptide 10]
- per cent of fluorescent mature sporozoites (Spz Fluorescence, antiplasmodial activity) [10]: 73%
